Assay results from patent publication US20100143241A1, “Method and apparatus for delivery of agents across the blood brain barrier” (priority 2008, published 2010).

Columns and labels:
[1] = in vivo; cited from earlier work
mouse brain = experiment: T1 estimation by spin echo MRI in mice given Gd-DTPA with or without BOMUS; format: in vivo
Experimental: (§1) To enhance the brain with MR contrast, Gd-DTPA (Magnevist, Bayer HealthCare Pharmaceuticals, Wayne, N.J.) was administered by intraperitoneal (IP) injection 10 minutes prior to BOMUS (FIG. 14b). […] The Gd-DTPA dose was 3.2, 6.4, or 9.5 mmol/kg, as noted later. After BOMUS, high-throughput MR images were acquired. Because Gd-DTPA is normally excluded by the BBB, opening of the BBB was indicated by contrast-enhancement on T1-weighted MRI.
T1 measurements were performed by acquiring a series of 2D spin echo images with varying TRs: TR=200, 400, 800, 1600, 3200, 6400, or 12800 ms; TE=7 ms; BW=31.25; slice thickness=1 mm; FOV=20×20 mm; matrix=128×128. T1 over a region of interest (ROI) was estimated using a three-parameter non-linear fit of the data to the following equation: I=m(1−[…])+a, where I is the mean ROI intensity and TR is the repetition time. The three terms that were fit were m, a multiplicative constant; a, an additive constant; and T1.
To measure the change in relaxivity due to the Gd-DTPA, T1 was estimated in ROIs selected from the cortex, basal ganglia and muscle (FIG. 21). In the control animal receiving neither Gd-DTPA nor BOMUS, T1 values were long in the cortex (2.08 s), basal ganglia (1.97 s), and muscle (2.01 s). In the animal given only Gd-DTPA, the muscle T1 shortened dramatically (0.71 s); but T1 was only shortened modestly in the cortex (1.53 s) and basal ganglia (1.56 s) because the intact BBB excluded the Gd-DTPA. However, in the BOMUS-treated animal, Gd-DTPA not only shortened T1 in the muscle (0.80 s), but Gd-DTPA also crossed the BBB and dramatically shortened T1 in the cortex (0.50 s) and basal ganglia (0.50 s).

blood-brain barrier = experiment: T1-weighted MRI contrast enhancement of the mouse brain after BBB opening with microbubbles and unfocused ultrasound; format: in vivo; settings: for enhancement in CSF and brain parenchyma: Gd-DTPA 6.4 mmol/kg IP
Text: Magnetic resonance images were acquired of a live mouse using a 7.0 T magnetic resonance system developed for magnetic resonance microscopy. […] IV injection of gadopentetate dimeglumine a standard magnetic resonance contrast agent results in enhancement of the muscles (FIG. 2b) but the brain remains dark. […] However, application of the ultrasound energy with the combination of Definity and gadopentetate dimeglumine opens the blood-brain barrier allowing the gadopentetate dimeglumine to actively stain the brain. Note in FIG. 2d the signal from the actively stained brain is nearly 5× (i.e., 5 fold or 5 times) stronger than it is in the unstained brain in FIG. 2a.
To open the BBB, 30 microliters of perflutren lipid microspheres (activated Definity) were injected through a tail vein catheter and simultaneously the ultrasound pulse sequence was initiated. The ultrasound was applied for 3 minutes.
as §1
For MRI, a 35 mm diameter quadrature transmit/receive volume coil (m2m Imaging Corp., Cleveland, Ohio) was used. The MR system was a 7 T horizontal bore magnet driven by a GE EXCITE console (General Electric Healthcare, Milwaukee, Wis.). MR images were acquired using either a high-throughput or high-resolution protocol. The high-throughput scan (3.2 minutes) used a 3D spoiled gradient recalled (SPGR) sequence with the following parameters: repetition time (TR)=25 ms; echo time (TE)=2 ms; flip angle (FA)=30 degrees; field of view (FOV)=20×20×12 mm; matrix=128×128×60; number of averages (NEX)=1. Data were acquired at a resolution of 156×156×200 micrometers.
High-resolution images were acquired with a similar 51 minute SPGR protocol: TR=25 ms; TE=3-4 ms; FA=15-22 degrees; FOV=20×20×8 mm; matrix=384×384×80; NEX=4. Data were acquired at a resolution of 52×52×100 micrometers.
To determine if the combination of unfocused ultrasound and microbubbles could be used to globally open the BBB, this treatment was compared to a variety of control scenarios (FIG. 16). […] However, co-administration of ultrasound and microbubbles globally opens the BBB, allowing the Gd-DTPA to enhance the brain. Animals received Gd-DTPA 6.4 mmol/kg IP 10 minutes prior to treatment, and T1-weighted images (high-throughput protocol) were acquired 20 minutes after treatment (FIG. 14b).

[2] = BOMUS-treated animal given Gd-DTPA
[3] = animal given only Gd-DTPA, no BOMUS, intact BBB
[4] = Gd-DTPA along with BOMUS, high-resolution SPGR, left anterior cortex

SMILES: CNC[C@H](O)[C@@H](O)[C@H](O)[C@H](O)CO.CNC[C@H](O)[C@@H](O)[C@H](O)[C@H](O)CO.O=C([O-])CN(CCN(CC(=O)[O-])CC(=O)O)CCN(CC(=O)[O-])CC(=O)O.[Gd+3] [Gd-DTPA, gadopentetate dimeglumine]
- half-life [1]: 1.6 h
- T1 in basal ganglia (mouse brain; [2]): 0.50 s
- T1 in cortex (mouse brain; [2]): 0.50 s
- T1 in muscle (mouse brain; [2]): 0.80 s
- T1 of brain after active staining (mouse brain; Gd-DTPA with BOMUS, reduced from approximately 2000 ms): ~500 ms
- T1 in muscle (mouse brain; animal given only Gd-DTPA, no BOMUS): 0.71 s
- T1 in basal ganglia (mouse brain; [3]): 1.56 s
- T1 in cortex (mouse brain; [3]): 1.53 s
- enhancement in CSF and brain parenchyma (blood-brain barrier; both ultrasound and microbubbles simultaneously): dramatic enhancement in the CSF and brain parenchyma
- enhancement in CSF and brain parenchyma (blood-brain barrier; no treatment, only ultrasound, or only microbubbles): no enhancement in the cerebrospinal fluid (CSF) or in the brain parenchyma
- increase in SNR over control mouse receiving no contrast agent (blood-brain barrier; [4]): 90%
- increase in SNR over mouse receiving only Gd-DTPA (blood-brain barrier; [4]): 63%
- time post-injection within which most of the enhancement occurs (blood-brain barrier; IP injection, preliminary studies): 10 to 15 min
- wash-out of brain staining after BOMUS (blood-brain barrier; time-course of T1-weighted signal, up to 27 hours after BOMUS): washes out within a day
- signal of actively stained brain relative to unstained brain (blood-brain barrier; ultrasound with Definity and gadopentetate dimeglumine, 7.0 T, T1-weighted, FIG. 2): ~5 ×
